Patent publication US20030129204A1, “Vaccines against helminthic parasites” (priority 1994, published 2003)
Read-outs that look alike come from different tables or passages of the source. Where a SMILES comes first, the peptide text is derived from it. [ ]: non-standard residue; d: D form. The star is where a group is joined. Sta = CC(C)C[C@H](N)[C@@H](O)CC(=O)O; Isovaleryl = CC(C)CC(=O)*

What was measured:
[1] = system: TSBP proteinases; assay type: biochemical, H. contortus; conditions: for proteolysis reduced in the presence of inhibitor (percent activity lost): pH 8.5
Procedure: TSBP (2 μg protein in 10 μl) were mixed with 1OO μl sterile buffer (0.1M acetate, pH5) and 20 μl azocasein (1 mg/ml) in the same buffet. The reaction mixture was supplemented with penicillin (500 iu/ml) and streptomycin (5 mg/ml), vortexed briefly and then incubated overnight at 37° C. Undigested protein was precipitated by the addition of 1M perchloric acid (13O μl) and incubation on ice for 30 minutes. Following centrifugation at 11,000 g for 5 minutes the 0D405 of the resulting supernatant was determined. Blank reactions, containing sterile water instead of TSBP, were run in parallel. The optimal pH for enzyme activity was determined in a series of reactions using buffers over the pH range 3 to 10.
The effects of various proteinase inhibitors on TSBP proteinases were monitored by incubating TSBP with buffer supplemented with inhibitor for 30 minutes prior to addition of azocasein and antibiotics. Inhibitors tested and the final reaction concentrations were phenylmethanesulphonylfluoride (PMSF, 1.0 mM), L-transepoxysuccinyl-L-leucylamido-(4-guanidino)-butane (E64, 100 μM), ethylenediaminetetraacetic-acid (EDTA, 1.0 mM) and pepstatin (10 μM).

[2] = system: TSBP proteinases; experiment: Gelatin-substrate gel analysis of TSBP proteinases with inhibitors (H. contortus); assay type: biochemical; conditions: for 70 kDa proteinase activity / 88 kDa proteinase activity: pH 8.5, PMSF 1.0 mM or EDTA 1.0 mM
Procedure: (§1) TSBP were fractionated by non-reducing SDS-PAGE in 7.5% gel slabs containing 0.1% gelatin. The electrode buffer (Laemmli, 1977) was chilled on ice prior to use. After electrophoresis, SDS was eluted from the gel by extensive washing with 2.5% Triton X-100 for 30 minutes. Gel slabs were incubated overnight at 37° C. in 0.1M acetate buffer pH 5, 2 mM with respect to DTT or 0.1M Tris, pH 8.5. For some experiments TSBP were incubated with proteinase inhibitors prior to electrophoresis and inhibitors were also included in the incubation buffer at the final concentrations indicated above. Proteinases were visualised by Coomassie blue counter-staining.

[3] = system: TSBP proteinases; experiment: Gelatin-substrate gel analysis of TSBP proteinases with inhibitors (O. circumcincta); assay type: biochemical
Procedure: as §1
Proteinase activity associated with TSBP was monitored using gelatin-substrate gel analysis as described in Example 2 (paragraph (b)) to enable the characterisation of individual proteinases.

[4] = pH 5, azocasein, PMSF 1.0 mM, EDTA 1.0 mM, pepstatin 10 μM

Row | SMILES | percent activity lost in comparison to a control preparation in the absence of the inhibitor [1, 4] [%] | 70 kDa proteinase activity [2] | 88 kDa proteinase activity [2] | 97 kDa protease ([3]; pH 8.5) | also measured
1 | CC(C)CC(=O)N[C@H](C(=O)N[C@H](C(=O)N[C@@H](CC(C)C)[C@@H](O)CC(=O)N[C@@H](C)C(=O)N[C@@H](CC(C)C)[C@@H](O)CC(=O)O)C(C)C)C(C)C [Pepstatin, pepstatin] (Isovaleryl-VV[Sta]A[Sta]-OH) | 6 |  |  |  | 
2 | O=C(O)CN(CCN(CC(=O)O)CC(=O)O)CC(=O)O [EDTA, ethylenediaminetetraacetic-acid] |  | markedly reduced | completely inhibited |  | percent activity lost in comparison to a control preparation in the absence of the inhibitor ([1]; pH 5): 11%; proteolysis reduced in the presence of inhibitor (percent activity lost) [1]: 43%
3 | CC(C)C[C@H](NC(=O)[C@H]1O[C@@H]1C(=O)O)C(=O)NCCCCN=C(N)N [E64, L-transepoxysuccinyl-L-leucylamido-(4-guanidino)-butane] |  |  |  |  | zones of proteolysis at 37-38, 52, 70 and 100 kDa ([2]; pH 5, E64 100 μM): abolished; zones of proteolysis at 40, 50 and 70 kDa and stack/separating gel interface ([3]; pH 5): completely inhibited; TSBP proteinase activity in the presence of inhibitor ([1]; pH 5, azocasein, E64 100 μM): eliminated
4 | c1cnc2c(c1)ccc1cccnc12 [1,10 Phe] |  |  |  | inhibited | 
5 | O=S(=O)(F)Cc1ccccc1 [PMSF, phenylmethanesulphonylfluoride] | 28 | markedly reduced | completely inhibited | inhibited | 85 kDa doublet proteolysis ([3]; pH 8.5): inhibited; proteolysis reduced in the presence of inhibitor (percent activity lost) ([1]; azocasein, PMSF 1.0 mM, EDTA 1.0 mM): 52%
